biological target: T1, GLP-1R (Homo sapiens, UniProt P43220); experiment: EC20 GLP-1(9-36) PAM cAMP assay: dose response of compound in the presence of fixed concentration of GLP-1(9-36); format: cell-based; conditions: dose response of compound in presence of fixed concentration of GLP-1(9-36), GLP-1R CRE-bla CHO-K1 cells, read-out: EC20 GLP-1(9-36) PAM EC50
T1 construct: host or cells: GLP-1R CRE-bla CHO-K1 cells
How it was run: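 GLP-1R CRE-bla CHO-K1 cells treated 30 min at 37 °C with 12-point compound dose response plus fixed EC20 GLP-1(9-36), with IBMX, in HBSS/HEPES/0.1% BSA pH 7.4. Total cAMP measured by luminescent detection against standard curve; EC50 and Emax from non-linear regression.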

T1 sequence (P43220 24-463): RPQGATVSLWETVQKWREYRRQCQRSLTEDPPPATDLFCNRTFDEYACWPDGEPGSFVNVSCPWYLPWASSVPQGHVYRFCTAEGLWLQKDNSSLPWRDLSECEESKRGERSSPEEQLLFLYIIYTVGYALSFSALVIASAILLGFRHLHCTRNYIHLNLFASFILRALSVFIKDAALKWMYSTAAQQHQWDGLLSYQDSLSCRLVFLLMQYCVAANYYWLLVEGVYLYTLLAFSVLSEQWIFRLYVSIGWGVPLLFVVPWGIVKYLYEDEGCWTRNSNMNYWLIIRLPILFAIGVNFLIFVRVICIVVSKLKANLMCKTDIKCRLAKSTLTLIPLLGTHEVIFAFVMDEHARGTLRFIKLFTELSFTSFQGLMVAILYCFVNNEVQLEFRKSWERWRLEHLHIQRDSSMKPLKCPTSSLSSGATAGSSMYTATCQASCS
T1 sequence (P01275 100-127 partner limits assumed): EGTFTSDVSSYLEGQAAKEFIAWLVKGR

SMILES | EC50 [µM]
CCCCCCCOc1ccc(-c2cnc(-c3ccc(C[C@H](NC(=O)c4ccc(C(C)(C)C)s4)C(=O)NCC(=O)NCC(=O)O)cc3)nc2)cc1 [Compound 486] | < 0.8
CCCCCCCOc1ccc(-c2cnc(-c3ccc(C[C@H](NC(=O)c4ccc(C(C)(C)C)s4)C(=O)NCC(=O)NCCC(=O)O)cc3)nc2)cc1 [Compound 487] | < 0.8
CCCCCCCOc1ccc(-c2cnc(-c3ccc(C[C@H](NC(=O)c4ccc(C(C)(C)C)s4)C(=O)N4CCC[C@H]4C(=O)NCCC(=O)O)cc3)nc2)cc1 [Compound 494] | < 0.8
CCCCCCCOc1ccc(-c2cnc(-c3ccc(C[C@H](NC(=O)c4ccc(C(C)(C)C)s4)C(=O)N4CCC[C@H]4C(=O)NS(C)(=O)=O)cc3)nc2)cc1 [Compound 495] | < 0.8
CCCCCCCOc1ccc(-c2cnc(-c3ccc(C[C@H](NC(=O)c4ccc(C(C)(C)C)s4)C(=O)N4CCC[C@H]4C(=O)NS(=O)(=O)CC(=O)OC)cc3)nc2)cc1 [Compound 496] | < 0.8
CCCCCCCOc1ccc(-c2cnc(-c3ccc(C[C@H](NC(=O)c4ccc(C(C)(C)C)cc4)C(=O)N[C@H](CC)C(=O)O)cc3)nc2)cc1 [Compound 498] | 0.8 to 2.5
CCCCCCCOc1ccc(-c2cnc(-c3ccc(C[C@H](NC(=O)c4ccc(C(C)(C)C)s4)C(=O)NC(C(=O)O)c4cccc(S(C)(=O)=O)c4)cc3)nc2)cc1 (some centres unmarked) [Compound 501] | < 0.8
CCCCCCCOc1ccc(-c2cnc(-c3ccc(C[C@H](NC(=O)c4ccc(C(C)(C)C)cc4)C(=O)N[C@@H](CC(=O)O)C(=O)N(C)C)cc3)nc2)cc1 [Compound 503] | 0.8 to 2.5
CCCCCCCOc1ccc(-c2cnc(-c3ccc(C[C@H](NC(=O)c4ccc(C(C)(C)C)cc4)C(=O)N[C@@H](CC(=O)O)C(=O)N4CCCCC4)cc3)nc2)cc1 [Compound 504] | 2.5 to 5
CCCCCCCOc1ccc(-c2cnc(-c3ccc(C[C@H](NC(=O)c4ccc(C(C)(C)C)cc4)C(=O)N[C@@H](CC(=O)O)C(=O)N(C)CCN(C)C)cc3)nc2)cc1 [Compound 505] | 0.8 to 2.5
CCCCCCCOc1ccc(-c2cnc(-c3ccc(C[C@H](NC(=O)c4ccc(C(C)(C)C)cc4)C(=O)N[C@@H](CC(=O)NCCO)C(=O)O)cc3)nc2)cc1 [Compound 508] | < 0.8
CCCCCCCOc1ccc(-c2cnc(-c3ccc(C[C@H](NC(=O)c4ccc(C(C)(C)C)cc4)C(=O)N[C@@H](CC(=O)N(C)CCN)C(=O)O)cc3)nc2)cc1 [Compound 509] | 0.8 to 2.5
CCCCCCCOc1ccc(-c2cnc(-c3ccc(C[C@H](NC(=O)c4ccc(C(C)(C)C)cc4)C(=O)N[C@@H](CC(=O)Nc4nnn[nH]4)C(=O)O)cc3)nc2)cc1 [Compound 510] | 2.5 to 5
CCCCCCCOc1ccc(-c2cnc(-c3ccc(C[C@H](NC(=O)c4ccc(C(C)(C)C)cc4)C(=O)N[C@@H](CC(=O)NS(C)(=O)=O)C(=O)O)cc3)nc2)cc1 [Compound 511] | 0.8 to 2.5
CCCCCCCOc1ccc(-c2cnc(-c3ccc(C[C@H](NC(=O)c4ccc(C(C)(C)C)s4)C(=O)N[C@@H](CC(=O)NC)C(=O)O)cc3)nc2)cc1 [Compound 512] | < 0.8
CCCCCCCOc1ccc(-c2cnc(-c3ccc(C[C@H](NC(=O)c4ccc(C(C)(C)C)s4)C(=O)N[C@@H](CC(=O)N(C)C)C(=O)O)cc3)nc2)cc1 [Compound 513] | < 0.8
CCCCCCCOc1ccc(-c2cnc(-c3ccc(C[C@H](NC(=O)c4ccc(C(C)(C)C)s4)C(=O)N[C@@H](CC(=O)N[C@@H](C)C(=O)O)C(=O)O)cc3)nc2)cc1 [Compound 516] | < 0.8
CCCCCCCOc1ccc(-c2cnc(-c3ccc(C[C@H](NC(=O)c4ccc(C(C)(C)C)s4)C(=O)N[C@@H](CC(=O)N(C)CCN(C)C)C(=O)O)cc3)nc2)cc1 [Compound 520] | 0.8 to 2.5
CCCCCCCOc1ccc(-c2cnc(-c3ccc(C[C@H](NC(=O)c4ccc(C(C)(C)C)s4)C(=O)N[C@@H](CC(=O)NCCO)C(=O)O)cc3)nc2)cc1 [Compound 521] | < 0.8
CCCCCCCOc1ccc(-c2cnc(-c3ccc(C[C@H](NC(=O)c4ccc(C(C)(C)C)s4)C(=O)N[C@@H](CC(=O)O)C(N)=O)cc3)nc2)cc1 [Compound 525] | < 0.8
CCCCCCCOc1ccc(-c2cnc(-c3ccc(C[C@H](NC(=O)c4ccc(C(C)(C)C)s4)C(=O)N[C@@H](CC(=O)O)C(=O)NC)cc3)nc2)cc1 [Compound 526] | < 0.8
CCCCCCCOc1ccc(-c2cnc(-c3ccc(C[C@H](NC(=O)c4ccc(C(C)(C)C)s4)C(=O)N[C@@H](CC(=O)O)C(=O)N4CCCC4)cc3)nc2)cc1 [Compound 528] | < 0.8
CCCCCCCOc1ccc(-c2cnc(-c3ccc(C[C@H](NC(=O)c4ccc(C(C)(C)C)s4)C(=O)N[C@@H](CC(=O)O)C(=O)NCC(N)=O)cc3)nc2)cc1 [Compound 530] | < 0.8
CCCCCCCOc1ccc(-c2cnc(-c3ccc(C[C@H](NC(=O)c4ccc(C(C)(C)C)s4)C(=O)N[C@@H](CC(=O)O)C(=O)N4CCOCC4)cc3)nc2)cc1 [Compound 533] | < 0.8

Other lines, results leading:

EC50 [µM] | SMILES
0.8 to 2.5 | CCCCCCCOc1ccc(-c2cnc(-c3ccc(C[C@H](NC(=O)c4ccc(C(C)(C)C)cc4)C(=O)NC(C(=O)O)c4nc(C)oc4C)cc3)nc2)cc1 (some centres unmarked) [Compound 488]
0.8 to 2.5 | CCCCCOc1ccc(-c2cnc(-c3ccc(C[C@H](NC(=O)c4ccc(C(C)(C)C)cc4)C(=O)NCCC(=O)O)cc3)nc2)cc1 [Compound 489]
0.8 to 2.5 | CCCCCCOc1ccc(-c2cnc(-c3ccc(C[C@H](NC(=O)c4ccc(C(C)(C)C)cc4)C(=O)NCCC(=O)O)cc3)nc2)cc1 [Compound 490]
< 0.8 | CCCCCCCOc1ccc(-c2cnc(-c3ccc(C[C@H](NC(=O)c4ccc(C(C)(C)C)cc4)C(=O)N4C[C@H](O)C[C@H]4C(=O)O)cc3)nc2)cc1 [Compound 491]
5 to 10 | CCCCCCCOc1ccc(-c2cnc(-c3ccc(C[C@H](NC(=O)c4ccc(C(C)(C)C)cc4)C(=O)N[C@@H](CCCCN)C(=O)O)cc3)nc2)cc1 [Compound 492]
< 0.8 | CCCCCCCOc1ccc(-c2cnc(-c3ccc(C[C@H](NC(=O)c4ccc(C(C)(C)C)s4)C(=O)N4CCC[C@H]4C(=O)NCC(=O)O)cc3)nc2)cc1 [Compound 493]
< 0.8 | CCCCCCCOc1ccc(-c2cnc(-c3ccc(C[C@H](NC(=O)c4ccc(C(C)(C)C)s4)C(=O)N4CCC[C@H]4C(=O)N4CCCC4C(=O)O)cc3)nc2)cc1 (some centres unmarked) [Compound 497]
< 0.8 | CCCCCCCOc1ccc(-c2cnc(-c3ccc(C[C@H](NC(=O)c4ccc(C(C)(C)C)cc4)C(=O)N[C@@H](CC)C(=O)O)cc3)nc2)cc1 [Compound 499]
0.8 to 2.5 | CCCCCCCOc1ccc(-c2cnc(-c3ccc(C[C@H](NC(=O)c4ccc(C(C)(C)C)s4)C(=O)N4CCC[C@H]4C(=O)N4CC[C@@H](C(=O)O)C4)cc3)nc2)cc1 [Compound 500]
< 0.8 | CCCCCCCOc1ccc(-c2cnc(-c3ccc(C[C@H](NC(=O)c4ccc(C(C)(C)C)cc4)C(=O)N[C@@H](CC(=O)OCc4ccccc4)C(=O)O)cc3)nc2)cc1 [Compound 502, (S)-4-(benzyloxy)-2-((S)-2-(4-(tert-butyl)benzamido)-3-(4-(5-(4-(heptyloxy)phenyl)pyrimidin-2-yl)phenyl)propanamido)-4-oxobutanoic acid]
0.8 to 2.5 | CCCCCCCOc1ccc(-c2cnc(-c3ccc(C[C@H](NC(=O)c4ccc(C(C)(C)C)cc4)C(=O)N[C@@H](CC(=O)O)C(=O)NCCOC)cc3)nc2)cc1 [Compound 506]
0.8 to 2.5 | CCCCCCCOc1ccc(-c2cnc(-c3ccc(C[C@H](NC(=O)c4ccc(C(C)(C)C)cc4)C(=O)N[C@@H](CC(=O)O)C(=O)N4CCOCC4)cc3)nc2)cc1 [Compound 507]
< 0.8 | CCCCCCCOc1ccc(-c2cnc(-c3ccc(C[C@H](NC(=O)c4ccc(C(C)(C)C)s4)C(=O)N[C@@H](CC(=O)NCC(=O)O)C(=O)O)cc3)nc2)cc1 [Compound 515]
< 0.8 | CCCCCCCOc1ccc(-c2cnc(-c3ccc(C[C@H](NC(=O)c4ccc(C(C)(C)C)s4)C(=O)N[C@@H](CC(=O)N[C@@H](CO)C(=O)O)C(=O)O)cc3)nc2)cc1 [Compound 517]
0.8 to 2.5 | CCCCCCCOc1ccc(-c2cnc(-c3ccc(C[C@H](NC(=O)c4ccc(C(C)(C)C)s4)C(=O)N[C@@H](CC(=O)NCC(N)=O)C(=O)O)cc3)nc2)cc1 [Compound 518]
0.8 to 2.5 | CCCCCCCOc1ccc(-c2cnc(-c3ccc(C[C@H](NC(=O)c4ccc(C(C)(C)C)s4)C(=O)N[C@@H](CC(=O)N(C)CCN)C(=O)O)cc3)nc2)cc1 [Compound 519]
0.8 to 2.5 | CCCCCCCOc1ccc(-c2cnc(-c3ccc(C[C@H](NC(=O)c4ccc(C(C)(C)C)s4)C(=O)N[C@@H](CC(=O)Nc4nnn[nH]4)C(=O)O)cc3)nc2)cc1 [Compound 522]
< 0.8 | CCCCCCCOc1ccc(-c2cnc(-c3ccc(C[C@H](NC(=O)c4ccc(C(C)(C)C)s4)C(=O)N[C@@H](CC(=O)NS(C)(=O)=O)C(=O)O)cc3)nc2)cc1 [Compound 523]
< 0.8 | CCCCCCCOc1ccc(-c2cnc(-c3ccc(C[C@H](NC(=O)c4ccc(C(C)(C)C)s4)C(=O)N[C@@H](CC(=O)OCc4ccccc4)C(=O)O)cc3)nc2)cc1 [Compound 524, (S)-4-(benzyloxy)-2-((S)-2-(5-(tert-butyl)thiophene-2-carboxamido)-3-(4-(5-(4-(heptyloxy)phenyl)pyrimidin-2-yl)phenyl)propanamido)-4-oxobutanoic acid]
< 0.8 | CCCCCCCOc1ccc(-c2cnc(-c3ccc(C[C@H](NC(=O)c4ccc(C(C)(C)C)s4)C(=O)N[C@@H](CC(=O)O)C(=O)N(C)C)cc3)nc2)cc1 [Compound 527]
< 0.8 | CCCCCCCOc1ccc(-c2cnc(-c3ccc(C[C@H](NC(=O)c4ccc(C(C)(C)C)s4)C(=O)N[C@@H](CC(=O)O)C(=O)N4CCCCC4)cc3)nc2)cc1 [Compound 529]
0.8 to 2.5 | CCCCCCCOc1ccc(-c2cnc(-c3ccc(C[C@H](NC(=O)c4ccc(C(C)(C)C)s4)C(=O)N[C@@H](CC(=O)O)C(=O)N(C)CCN(C)C)cc3)nc2)cc1 [Compound 531]
< 0.8 | CCCCCCCOc1ccc(-c2cnc(-c3ccc(C[C@H](NC(=O)c4ccc(C(C)(C)C)s4)C(=O)N[C@@H](CC(=O)O)C(=O)NCCOC)cc3)nc2)cc1 [Compound 532]

Reference: patent publication US10034886B2, “GLP-1 receptor modulators” (Celgene International II SÀRL, priority 2014, dated 2018)
